Measured values as given in patent US20130023045A1, “INDUCED HEPATIC STEM CELL AND PROCESS FOR PRODUCTION THEREOF, AND APPLICATIONS OF THE CELL” (NATIONAL CANCER CENTER, priority 2010, published 2013).

System: induced human hepatic stem cells (AFB1-1, NGC1-2)
Test: Long-term passage culture of induced human hepatic stem cells
Assay type: cell-based
Conditions: addition of 0.05-0.5 μM to the medium, passage culture for six months or longer
Text: Induced human hepatic stem cells (AFB1-1, NGC1-2) were subjected to passage culture for six months or longer. The exemplary medium used includes mTeSR1 (STEMCELL Technologies/VERITAS), a bFGF-supplemented medium for primate ES/iPS cells (ReproCELL), or bFGF-supplemented ReproStem (ReproCELL). In the case of using MEFs, a collagen- or gelatin-coated culture dish was used, and in the case of not using MEFs, a matrigel-coated culture dish was used.

Cc1cccc(-c2nn(C(=S)Nc3ccccc3)cc2-c2ccnc3ccccc23)n1 [A-83-01]
proliferation rate and morphology: highly satisfactory proliferation rate and morphology | self-replication of induced human hepatic stem cells: useful for self-replication of induced human hepatic stem cells
